Measurements: ChEMBL document CHEMBL5728563, “Aminopyrazine derivatives as PI3K-γ inhibitors” (2021)

Legend:
[1] = molecular target: T1, Phosphatidylinositol 4,5-bisphosphate 3-kinase catalytic subunit delta isoform (Homo sapiens, UniProt O00329); experiment: (§1) PI3Kdelta Scintillation Proximity Assay: Materials: [γ-33P]ATP (10 mCi/mL) and Wheat Germ Agglutinin (WGA) YSi SPA Scintillation Beads was purchased from Perkin Elmer (Waltham, Mass.). Lipid kinase substrate, D-myo-Phosphatidylinositol 4,5-bisphosphate (PtdIns(4,5)P2)D (+)-sn-1,2-di-O-octanoylglyceryl, 3-O-phospho linked (PIP2), CAS 204858-53-7, was purchased from Echelon Biosciences (Salt Lake City, Utah). PI3Kδ (p110δ/p85α) Recombinant Human Protein was purchased from Eurofins (St Charles, Mo.). ATP, MgCl2, DTT, EDTA, MOPS and CHAPS were purchased from Sigma Aldrich (St. Louis, Mo.).The kinase reaction was conducted in polystyrene 384-well Greiner Bio-one white plate from Thermo Fisher Scientific in a final volume of 25 μL. Inhibitors were first diluted serially in DMSO and added to the plate wells before the addition of other reaction components. The final concentration of DMSO in the assay was 2%. The PI3Kδ assay was carried out at room temperature in 20 mM MOPS, pH 6.7, 10 mM MgCl2, 5 mM DTT and CHAPS 0.03%. Reactions were initiated by the addition of ATP, the final reaction mixture consisted of 20 μM PIP2, 2 μM ATP, 0.5 μCi [γ-33P] ATP, 3.4 nM PI3Kδ. Reactions were incubated for 120 min and terminated by the addition of 40 μL SPA beads suspended in quench buffer: 163 mM potassium phosphate pH 7.8, 20% glycerol, 25 mM EDTA. The final concentration of SPA beads is 1.0 mg/mL. […]
T1 sequence (O00329 whole entry): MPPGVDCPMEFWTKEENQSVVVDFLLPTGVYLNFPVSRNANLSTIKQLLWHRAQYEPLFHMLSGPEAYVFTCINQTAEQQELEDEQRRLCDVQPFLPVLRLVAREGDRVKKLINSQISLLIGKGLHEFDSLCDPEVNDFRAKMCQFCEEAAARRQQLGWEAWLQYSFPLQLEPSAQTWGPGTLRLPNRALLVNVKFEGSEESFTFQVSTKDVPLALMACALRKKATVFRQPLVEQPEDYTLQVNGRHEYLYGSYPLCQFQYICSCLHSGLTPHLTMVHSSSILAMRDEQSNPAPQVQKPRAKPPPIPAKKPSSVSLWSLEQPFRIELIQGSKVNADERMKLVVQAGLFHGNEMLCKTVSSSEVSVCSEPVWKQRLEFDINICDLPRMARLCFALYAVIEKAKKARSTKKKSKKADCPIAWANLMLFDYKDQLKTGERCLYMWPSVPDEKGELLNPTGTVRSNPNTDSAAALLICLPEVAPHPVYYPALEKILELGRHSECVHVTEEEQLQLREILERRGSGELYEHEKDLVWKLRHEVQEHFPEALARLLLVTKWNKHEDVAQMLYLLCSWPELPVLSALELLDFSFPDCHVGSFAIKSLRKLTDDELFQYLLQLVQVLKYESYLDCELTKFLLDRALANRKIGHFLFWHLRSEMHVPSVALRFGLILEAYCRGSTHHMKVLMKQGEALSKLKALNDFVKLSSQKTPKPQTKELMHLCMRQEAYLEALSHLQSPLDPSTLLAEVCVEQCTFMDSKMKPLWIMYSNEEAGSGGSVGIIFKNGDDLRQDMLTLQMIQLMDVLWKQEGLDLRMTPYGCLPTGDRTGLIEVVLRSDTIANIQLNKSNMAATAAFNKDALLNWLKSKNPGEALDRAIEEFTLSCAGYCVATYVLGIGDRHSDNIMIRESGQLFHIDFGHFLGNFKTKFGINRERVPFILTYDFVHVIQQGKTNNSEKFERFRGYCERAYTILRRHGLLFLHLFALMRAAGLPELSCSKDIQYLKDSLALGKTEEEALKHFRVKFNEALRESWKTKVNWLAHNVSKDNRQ

[2] = molecular target: Phosphatidylinositol 4,5-bisphosphate 3-kinase catalytic subunit gamma isoform (Homo sapiens, UniProt P48736); experiment: as §1, with “PI3K-gamma” for “PI3Kdelta”, “PI3Kγ (p110γ)” for “PI3Kδ (p110δ/p85α)”, “Life technology (Grand Island, N.Y.).” for “Eurofins (St Charles, Mo.).”, “PI3Kγ” for “PI3Kδ”, “13” for “3.4”, “PI3Kγ.” for “PI3Kδ.”
Sequence of Phosphatidylinositol 4,5-bisphosphate 3-kinase catalytic subunit gamma isoform (P48736 whole entry, canonical isoform): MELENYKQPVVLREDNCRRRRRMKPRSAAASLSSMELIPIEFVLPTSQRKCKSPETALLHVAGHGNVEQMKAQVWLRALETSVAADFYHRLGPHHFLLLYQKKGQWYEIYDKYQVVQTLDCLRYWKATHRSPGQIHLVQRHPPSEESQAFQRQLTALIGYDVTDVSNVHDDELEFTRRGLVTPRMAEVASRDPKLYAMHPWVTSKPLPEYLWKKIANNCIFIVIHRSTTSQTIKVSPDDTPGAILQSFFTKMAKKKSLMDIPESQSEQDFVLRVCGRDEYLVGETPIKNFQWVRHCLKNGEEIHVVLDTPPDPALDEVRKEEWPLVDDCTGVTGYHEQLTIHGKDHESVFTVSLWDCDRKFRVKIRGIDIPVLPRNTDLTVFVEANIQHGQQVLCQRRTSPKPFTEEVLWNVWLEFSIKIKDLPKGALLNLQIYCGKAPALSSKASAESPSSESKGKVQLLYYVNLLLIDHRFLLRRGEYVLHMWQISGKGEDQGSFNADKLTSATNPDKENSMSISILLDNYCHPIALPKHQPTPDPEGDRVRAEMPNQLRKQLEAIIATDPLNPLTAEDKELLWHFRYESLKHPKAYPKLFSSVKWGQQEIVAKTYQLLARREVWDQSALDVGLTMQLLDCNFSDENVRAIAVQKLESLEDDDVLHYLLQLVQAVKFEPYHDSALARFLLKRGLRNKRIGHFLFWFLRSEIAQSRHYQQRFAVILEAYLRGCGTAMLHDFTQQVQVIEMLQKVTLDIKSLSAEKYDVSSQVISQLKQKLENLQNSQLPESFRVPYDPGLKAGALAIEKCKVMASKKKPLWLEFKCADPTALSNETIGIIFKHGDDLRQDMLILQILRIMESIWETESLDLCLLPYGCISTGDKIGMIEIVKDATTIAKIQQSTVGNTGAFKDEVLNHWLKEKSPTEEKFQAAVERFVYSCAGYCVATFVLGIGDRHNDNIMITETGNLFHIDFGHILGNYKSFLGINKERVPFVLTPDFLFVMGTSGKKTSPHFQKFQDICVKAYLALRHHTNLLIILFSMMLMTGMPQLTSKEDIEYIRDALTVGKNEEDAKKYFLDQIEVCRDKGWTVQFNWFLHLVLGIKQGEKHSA

IC50 [1]: < 100 nM
IC50 [2]: < 100 nM
Structure (SMILES): Cc1ncc(-c2nc(-c3cc(C(O)(C(N)=O)C(F)(F)F)ccc3C)cnc2N)s1 (configuration not stated)
